Laboratory results as given in paper PMC9532703, “A novel small molecule RK-019 inhibits FGFR2-amplification gastric cancer cell proliferation and induces apoptosis in vitro and in vivo” (Frontiers in Pharmacology, 2022).

Experiments:
Assay in all cases: Kinase selectivity panel
Assay type in all cases: biochemical
Conditions in all cases: read-out: Inhibition(%) @ 1 µM RK-019
CDK5/p35(h) = target: T1, CDK5/p35(h) (Homo sapiens, UniProt Q00535)
T1 construct: purchased Eurofins Discovery Services (KinaseProfiler)
Outline: (§1)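 The compound is tested at a fixed 1 µM in an in vitro binding assay based on competition at the ATP site of recombinant human kinase. Inhibition ratio is reported.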

Abl(m) = target: T2, Abl(m) (Mus musculus, UniProt P00520)
T2 construct: purchased Eurofins Discovery Services (KinaseProfiler)

SGK3(h) = target: T3, SGK3(h) (Homo sapiens, UniProt Q96BR1)
T3 construct: purchased Eurofins Discovery Services (KinaseProfiler)
T3 sequence (Q96BR1 whole entry): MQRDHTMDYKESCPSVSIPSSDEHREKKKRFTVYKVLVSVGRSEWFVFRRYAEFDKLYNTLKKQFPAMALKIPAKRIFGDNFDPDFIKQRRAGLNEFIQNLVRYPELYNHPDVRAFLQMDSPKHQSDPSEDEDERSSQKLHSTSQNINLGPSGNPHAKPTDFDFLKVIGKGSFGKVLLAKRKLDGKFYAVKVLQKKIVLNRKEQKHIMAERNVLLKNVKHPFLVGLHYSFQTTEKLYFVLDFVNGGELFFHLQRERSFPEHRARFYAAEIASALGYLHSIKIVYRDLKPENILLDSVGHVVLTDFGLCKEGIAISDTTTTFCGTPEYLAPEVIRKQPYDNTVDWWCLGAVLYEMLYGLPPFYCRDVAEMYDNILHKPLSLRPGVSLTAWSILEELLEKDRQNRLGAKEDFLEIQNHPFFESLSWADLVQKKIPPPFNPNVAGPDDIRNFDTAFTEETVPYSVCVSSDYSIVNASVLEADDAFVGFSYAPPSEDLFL
Outline: as §1

ARK5(h) = target: T4, ARK5(h) (Homo sapiens, UniProt O60285)
T4 construct: purchased Eurofins Discovery Services (KinaseProfiler)
Outline: as §1

IRAK1(h) = target: T5, IRAK1(h) (Homo sapiens, UniProt P51617)
T5 construct: purchased Eurofins Discovery Services (KinaseProfiler)
Outline: as §1

MAPKAP-K2(h) = target: T6, MAPKAP-K2(h) (Homo sapiens, UniProt P49137)
T6 construct: purchased Eurofins Discovery Services (KinaseProfiler)
Outline: as §1

CLK2(h) = target: T7, CLK2(h) (Homo sapiens, UniProt P49760)
T7 construct: purchased Eurofins Discovery Services (KinaseProfiler)
Outline: as §1

Met(Y1248H)(h) = target: T8, Met(Y1248H)(h) (Homo sapiens, UniProt P08581, Y1230H)
T8 construct: purchased Eurofins Discovery Services (KinaseProfiler)
Outline: as §1

Plk3(h) = target: T9, Plk3(h) (Homo sapiens, UniProt Q9H4B4)
T9 construct: purchased Eurofins Discovery Services (KinaseProfiler)
Outline: as §1

Mnk2(h) = target: T10, Mnk2(h) (Homo sapiens, UniProt Q9HBH9)
T10 construct: purchased Eurofins Discovery Services (KinaseProfiler)
Outline: as §1

TrkA(h) = target: T11, TrkA(h) (Homo sapiens, UniProt P04629)
T11 construct: purchased Eurofins Discovery Services (KinaseProfiler)
Outline: as §1

NDR2(h) = target: T12, NDR2(h) (Homo sapiens, UniProt Q9Y2H1)
T12 construct: purchased Eurofins Discovery Services (KinaseProfiler)
Outline: as §1

PDGFRβ(h) = target: T13, PDGFRβ(h) (Homo sapiens, UniProt P09619)
T13 construct: purchased Eurofins Discovery Services (KinaseProfiler)
Outline: as §1

CaMKIIγ(h) = target: T14, CaMKIIγ(h) (Homo sapiens, UniProt Q13555)
T14 construct: purchased Eurofins Discovery Services (KinaseProfiler)
T14 sequence (Q13555 whole entry): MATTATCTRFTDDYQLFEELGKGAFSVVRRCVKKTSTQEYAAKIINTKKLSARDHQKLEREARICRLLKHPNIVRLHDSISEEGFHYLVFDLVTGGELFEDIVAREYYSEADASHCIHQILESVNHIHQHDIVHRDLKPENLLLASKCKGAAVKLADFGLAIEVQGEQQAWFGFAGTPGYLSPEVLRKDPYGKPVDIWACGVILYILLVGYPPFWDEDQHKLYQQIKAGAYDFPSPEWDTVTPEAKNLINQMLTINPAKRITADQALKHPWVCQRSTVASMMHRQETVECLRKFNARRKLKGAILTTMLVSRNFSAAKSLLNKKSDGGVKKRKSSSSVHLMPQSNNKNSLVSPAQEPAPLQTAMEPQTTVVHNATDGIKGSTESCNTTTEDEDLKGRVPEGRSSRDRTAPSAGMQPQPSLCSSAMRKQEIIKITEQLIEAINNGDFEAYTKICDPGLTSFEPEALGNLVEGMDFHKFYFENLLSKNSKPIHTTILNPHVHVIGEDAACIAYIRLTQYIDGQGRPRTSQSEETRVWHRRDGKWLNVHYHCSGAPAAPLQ
Outline: as §1

MRCKγ(h) = target: T15, MRCKγ(h) (Homo sapiens, UniProt Q6DT37)
T15 construct: purchased Eurofins Discovery Services (KinaseProfiler)
Outline: as §1

HIPK2(h) = target: T16, HIPK2(h) (Homo sapiens, UniProt Q9H2X6)
T16 construct: purchased Eurofins Discovery Services (KinaseProfiler)
T16 sequence (Q9H2X6 whole entry): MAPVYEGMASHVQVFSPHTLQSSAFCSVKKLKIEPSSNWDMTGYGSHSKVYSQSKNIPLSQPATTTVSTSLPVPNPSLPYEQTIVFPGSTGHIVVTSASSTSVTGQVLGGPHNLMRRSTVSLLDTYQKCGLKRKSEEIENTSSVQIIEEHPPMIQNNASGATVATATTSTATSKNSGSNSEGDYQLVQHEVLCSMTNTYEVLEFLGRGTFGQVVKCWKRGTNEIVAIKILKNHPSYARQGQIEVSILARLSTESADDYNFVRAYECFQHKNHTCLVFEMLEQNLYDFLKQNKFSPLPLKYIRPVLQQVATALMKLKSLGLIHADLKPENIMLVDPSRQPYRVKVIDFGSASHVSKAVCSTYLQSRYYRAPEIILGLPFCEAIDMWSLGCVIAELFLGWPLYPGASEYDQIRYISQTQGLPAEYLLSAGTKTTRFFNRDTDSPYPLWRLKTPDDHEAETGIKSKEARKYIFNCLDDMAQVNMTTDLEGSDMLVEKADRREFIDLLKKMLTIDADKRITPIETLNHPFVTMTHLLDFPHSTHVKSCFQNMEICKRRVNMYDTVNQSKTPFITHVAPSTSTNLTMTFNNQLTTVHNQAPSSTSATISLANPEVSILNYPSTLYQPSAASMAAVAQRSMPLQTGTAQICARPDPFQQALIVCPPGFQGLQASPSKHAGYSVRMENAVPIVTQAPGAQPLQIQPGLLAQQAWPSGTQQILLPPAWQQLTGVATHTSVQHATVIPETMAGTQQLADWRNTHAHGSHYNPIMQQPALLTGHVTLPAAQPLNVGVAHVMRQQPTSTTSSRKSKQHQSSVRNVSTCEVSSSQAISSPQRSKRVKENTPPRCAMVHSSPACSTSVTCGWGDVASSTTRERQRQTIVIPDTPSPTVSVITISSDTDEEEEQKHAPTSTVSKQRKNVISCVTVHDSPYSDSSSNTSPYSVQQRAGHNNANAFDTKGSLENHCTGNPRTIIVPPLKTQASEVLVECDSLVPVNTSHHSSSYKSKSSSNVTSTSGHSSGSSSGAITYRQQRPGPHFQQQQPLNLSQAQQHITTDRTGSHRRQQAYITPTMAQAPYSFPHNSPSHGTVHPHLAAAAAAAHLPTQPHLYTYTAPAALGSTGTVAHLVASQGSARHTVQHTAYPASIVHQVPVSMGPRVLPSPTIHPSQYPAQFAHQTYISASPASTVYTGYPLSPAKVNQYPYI
Outline: as §1

Yes(h) = target: T17, Yes(h) (Homo sapiens, UniProt P07947)
T17 construct: purchased Eurofins Discovery Services (KinaseProfiler)
T17 sequence (P07947 whole entry): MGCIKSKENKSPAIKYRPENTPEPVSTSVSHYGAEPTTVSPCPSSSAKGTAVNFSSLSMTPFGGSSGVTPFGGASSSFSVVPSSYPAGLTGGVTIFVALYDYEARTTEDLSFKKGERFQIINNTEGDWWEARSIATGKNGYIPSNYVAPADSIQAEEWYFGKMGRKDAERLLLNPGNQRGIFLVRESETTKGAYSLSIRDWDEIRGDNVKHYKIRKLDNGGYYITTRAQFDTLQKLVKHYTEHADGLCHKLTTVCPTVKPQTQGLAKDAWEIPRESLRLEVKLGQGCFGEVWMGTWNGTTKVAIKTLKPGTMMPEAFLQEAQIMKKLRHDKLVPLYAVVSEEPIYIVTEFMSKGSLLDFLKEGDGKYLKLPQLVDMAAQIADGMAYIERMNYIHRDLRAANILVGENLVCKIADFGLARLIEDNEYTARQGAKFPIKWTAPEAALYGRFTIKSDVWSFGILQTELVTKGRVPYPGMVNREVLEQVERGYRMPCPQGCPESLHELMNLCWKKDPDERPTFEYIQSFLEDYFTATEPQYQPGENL
Outline: as §1

MELK(h) = target: T18, MELK(h) (Homo sapiens, UniProt Q14680)
T18 construct: purchased Eurofins Discovery Services (KinaseProfiler)
Outline: as §1

ZAP-70(h) = target: T19, ZAP-70(h) (Homo sapiens, UniProt P43403)
T19 construct: purchased Eurofins Discovery Services (KinaseProfiler)
T19 sequence (P43403 whole entry): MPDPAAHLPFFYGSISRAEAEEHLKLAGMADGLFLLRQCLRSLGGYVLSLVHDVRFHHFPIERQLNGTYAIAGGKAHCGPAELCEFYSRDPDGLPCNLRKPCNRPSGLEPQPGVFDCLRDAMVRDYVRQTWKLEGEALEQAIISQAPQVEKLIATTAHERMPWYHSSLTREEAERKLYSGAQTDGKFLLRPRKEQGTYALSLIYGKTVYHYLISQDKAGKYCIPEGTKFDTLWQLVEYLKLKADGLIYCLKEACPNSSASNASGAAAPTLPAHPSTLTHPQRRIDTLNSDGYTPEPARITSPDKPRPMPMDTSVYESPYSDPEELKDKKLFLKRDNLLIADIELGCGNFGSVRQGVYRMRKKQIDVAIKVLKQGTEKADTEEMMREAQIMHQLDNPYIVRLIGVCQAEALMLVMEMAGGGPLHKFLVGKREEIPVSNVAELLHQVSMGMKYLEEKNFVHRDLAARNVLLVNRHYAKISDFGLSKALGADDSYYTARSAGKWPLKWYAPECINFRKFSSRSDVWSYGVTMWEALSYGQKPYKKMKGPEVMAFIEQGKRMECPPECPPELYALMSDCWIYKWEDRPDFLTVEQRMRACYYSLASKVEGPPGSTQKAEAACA
Outline: as §1

PI3KC2g(h) = target: T20, PI3KC2g(h) (Homo sapiens, UniProt O75747)
T20 construct: purchased Eurofins Discovery Services (KinaseProfiler)
Outline: as §1

PTK5(h) = target: T21, PTK5(h) (Homo sapiens, UniProt P42685)
T21 construct: purchased Eurofins Discovery Services (KinaseProfiler)
Outline: as §1

Fms(h) = target: T22, Fms(h) (Homo sapiens, UniProt P07333)
T22 construct: purchased Eurofins Discovery Services (KinaseProfiler)
Outline: as §1

PRK2(h) = target: T23, PRK2(h) (Homo sapiens, UniProt Q16513)
T23 construct: purchased Eurofins Discovery Services (KinaseProfiler)
Outline: as §1

PDGFRα(D842V)(h) = target: T24, PDGFRα(D842V)(h) (Homo sapiens, UniProt P16234, D842V)
T24 construct: purchased Eurofins Discovery Services (KinaseProfiler)
T24 sequence (P16234 24-1089 D842V): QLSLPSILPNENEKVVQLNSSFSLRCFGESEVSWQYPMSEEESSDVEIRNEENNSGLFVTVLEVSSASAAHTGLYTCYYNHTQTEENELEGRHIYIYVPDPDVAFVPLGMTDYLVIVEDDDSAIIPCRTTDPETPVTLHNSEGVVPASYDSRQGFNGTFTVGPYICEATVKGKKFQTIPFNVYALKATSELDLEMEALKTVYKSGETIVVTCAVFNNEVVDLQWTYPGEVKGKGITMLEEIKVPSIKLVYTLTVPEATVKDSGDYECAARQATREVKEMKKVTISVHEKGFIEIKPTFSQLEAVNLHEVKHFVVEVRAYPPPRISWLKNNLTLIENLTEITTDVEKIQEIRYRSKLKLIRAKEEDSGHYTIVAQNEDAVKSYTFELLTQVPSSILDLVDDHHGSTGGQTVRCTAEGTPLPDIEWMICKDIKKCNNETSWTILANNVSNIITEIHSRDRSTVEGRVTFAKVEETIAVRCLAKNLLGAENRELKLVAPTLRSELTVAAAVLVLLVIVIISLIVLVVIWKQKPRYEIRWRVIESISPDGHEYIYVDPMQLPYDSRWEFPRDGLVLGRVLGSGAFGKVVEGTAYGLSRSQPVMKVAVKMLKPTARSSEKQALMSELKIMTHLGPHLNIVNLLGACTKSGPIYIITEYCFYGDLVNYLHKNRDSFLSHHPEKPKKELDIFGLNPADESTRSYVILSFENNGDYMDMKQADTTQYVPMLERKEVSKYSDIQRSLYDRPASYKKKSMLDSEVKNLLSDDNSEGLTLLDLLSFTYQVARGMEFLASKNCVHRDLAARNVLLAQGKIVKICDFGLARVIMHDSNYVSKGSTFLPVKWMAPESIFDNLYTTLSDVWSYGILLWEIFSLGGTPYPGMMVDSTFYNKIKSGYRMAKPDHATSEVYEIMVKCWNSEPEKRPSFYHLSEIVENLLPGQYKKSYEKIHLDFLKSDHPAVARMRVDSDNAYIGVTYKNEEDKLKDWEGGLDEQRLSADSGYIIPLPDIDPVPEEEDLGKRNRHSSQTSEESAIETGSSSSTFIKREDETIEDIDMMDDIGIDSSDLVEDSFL
Outline: as §1

CaMKK1(h) = target: T25, CaMKK1(h) (Homo sapiens, UniProt Q8N5S9)
T25 construct: purchased Eurofins Discovery Services (KinaseProfiler)
Outline: as §1

CaMKIV(h) = target: T26, CaMKIV(h) (Homo sapiens, UniProt Q16566)
T26 construct: purchased Eurofins Discovery Services (KinaseProfiler)
Outline: as §1

EGFR(T790M)(h) = target: T27, EGFR(T790M)(h) (Homo sapiens, UniProt P00533, T790M)
T27 construct: purchased Eurofins Discovery Services (KinaseProfiler)
Outline: as §1

ICK(h) = target: T28, ICK(h) (Homo sapiens, UniProt Q9UPZ9)
T28 construct: purchased Eurofins Discovery Services (KinaseProfiler)
Outline: as §1

HIPK4(h) = target: T29, HIPK4(h) (Homo sapiens, UniProt Q8NE63)
T29 construct: purchased Eurofins Discovery Services (KinaseProfiler)
Outline: as §1

DYRK2(h) = target: T30, DYRK2(h) (Homo sapiens, UniProt Q92630)
T30 construct: purchased Eurofins Discovery Services (KinaseProfiler)
Outline: as §1

MAPK1(h) = target: T31, MAPK1(h) (Homo sapiens, UniProt P27361)
T31 construct: purchased Eurofins Discovery Services (KinaseProfiler)
Outline: as §1

PhKγ2(h) = target: T32, PhKγ2(h) (Homo sapiens, UniProt P15735)
T32 construct: purchased Eurofins Discovery Services (KinaseProfiler)
T32 sequence (P15735 whole entry): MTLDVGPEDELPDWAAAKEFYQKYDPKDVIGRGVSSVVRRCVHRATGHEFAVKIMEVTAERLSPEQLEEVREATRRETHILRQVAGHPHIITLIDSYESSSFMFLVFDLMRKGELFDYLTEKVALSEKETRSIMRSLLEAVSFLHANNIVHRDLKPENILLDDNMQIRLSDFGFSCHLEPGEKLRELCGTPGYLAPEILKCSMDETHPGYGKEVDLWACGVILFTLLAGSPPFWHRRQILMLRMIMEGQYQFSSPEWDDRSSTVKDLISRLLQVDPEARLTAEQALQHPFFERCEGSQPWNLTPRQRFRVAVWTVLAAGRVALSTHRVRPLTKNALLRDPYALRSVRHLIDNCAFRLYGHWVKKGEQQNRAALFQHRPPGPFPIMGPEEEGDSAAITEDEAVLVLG
Outline: as §1

[1] = target: T33, PI3 Kinase (p110b/p85a)(m) (Mus musculus, UniProt Q8BTI9)
T33 construct: purchased Eurofins Discovery Services (KinaseProfiler)

CDK6/cyclinD3(h) = target: T34, CDK6/cyclinD3(h) (Homo sapiens, UniProt Q00534)
T34 construct: purchased Eurofins Discovery Services (KinaseProfiler)
Outline: as §1

Hck(h) = target: T35, Hck(h) (Homo sapiens, UniProt P08631)
T35 construct: purchased Eurofins Discovery Services (KinaseProfiler)
Outline: as §1

[2] = target: T36, PI3 Kinase (p110a(H1047R)/p85a)(h) (Homo sapiens, UniProt P42336, H1047R)
T36 construct: purchased Eurofins Discovery Services (KinaseProfiler)
Outline: as §1

mTOR(h) = target: T37, mTOR(h) (Homo sapiens, UniProt P42345)
T37 construct: purchased Eurofins Discovery Services (KinaseProfiler)
Outline: as §1

SMILES: COc1cc(OC)cc(N(CCN[C@H](C)CO)c2ccc3ncc(-c4cnn(C)c4)c(=O)n3c2)c1 [RK-019, (R)-7-((3,5-dimethoxyphenyl) (2-((1-hydroxypropan-2-yl)amino)ethyl)amino)-3-(1-methyl-1H-pyrazol-4-yl)-4H-pyrido [1,2-a]pyrimidin-4-one]
- activity at 1 µM (CDK5/p35(h)): 106%
- activity at 1 µM (Abl(m)): 17%
- activity at 1 µM (SGK3(h)): 97%
- activity at 1 µM (ARK5(h)): 146%
- activity at 1 µM (IRAK1(h)): 103%
- activity at 1 µM (MAPKAP-K2(h)): 121%
- activity at 1 µM (CLK2(h)): 107%
- activity at 1 µM (Met(Y1248H)(h)): 113%
- activity at 1 µM (Plk3(h)): 101%
- activity at 1 µM (Mnk2(h)): 108%
- activity at 1 µM (TrkA(h)): 92%
- activity at 1 µM (NDR2(h)): 108%
- activity at 1 µM (PDGFRβ(h)): 54%
- activity at 1 µM (CaMKIIγ(h)): 106%
- activity at 1 µM (MRCKγ(h)): 94%
- activity at 1 µM (HIPK2(h)): 83%
- activity at 1 µM (Yes(h)): 29%
- activity at 1 µM (MELK(h)): 104%
- activity at 1 µM (ZAP-70(h)): 119%
- activity at 1 µM (PI3KC2g(h)): 102%
- activity at 1 µM (PTK5(h)): 107%
- activity at 1 µM (Fms(h)): 16%
- activity at 1 µM (PRK2(h)): 106%
- activity at 1 µM (PDGFRα(D842V)(h)): 22%
- activity at 1 µM (CaMKK1(h)): 105%
- activity at 1 µM (CaMKIV(h)): 113%
- activity at 1 µM (EGFR(T790M)(h)): 90%
- activity at 1 µM (ICK(h)): 119%
- activity at 1 µM (HIPK4(h)): 100%
- activity at 1 µM (DYRK2(h)): 94%
- activity at 1 µM (MAPK1(h)): 116%
- activity at 1 µM (PhKγ2(h)): 88%
- activity at 1 µM [1]: 98%
- activity at 1 µM (CDK6/cyclinD3(h)): 106%
- activity at 1 µM (Hck(h)): 27%
- activity at 1 µM [2]: 100%
- activity at 1 µM (mTOR(h)): 105%
